Series [1] deals with weeds. The experiment in a line: Pre-emergence test (herbicidal activity). In kind it is in vivo. The settings on record: soil sprayed 24 hours after sowing, rated after three weeks.
For series [2], the system named is crop plants, such as corn and sugar beet. The experiment in a line: Pre-emergence test (crop plant tolerance). The settings on record: some crop plants, e.g. corn and sugar beet, rated after three weeks. Type of series: in vivo.
Series [3] can be described thus: log P determination by HPLC (EEC directive 79/831 Annex V.A8, reverse-phase C 18). The following applies: for chromatographic logP: reverse-phase C18 HPLC column, pH 2.3; for logP: HPLC, reverse-phase C 18, 43° C., acidic range: 0.1% aqueous phosphoric acid/acetonitrile gradient (marked a)).
Series [4] deals with weeds. The experiment in a line: Post-emergence test (herbicidal activity). Type of series: in vivo. The settings on record: test plants of 5-15 cm sprayed, rated after three weeks.
In series [5] the test system is crop plants, such as wheat. The series can be described thus: Post-emergence test (crop plant tolerance). Type of series: in vivo. The following applies: some crop plants, e.g. wheat, rated after three weeks.

Structures are written as SMILES.

By melting point is commonly meant the temperature, or range, at which the solid turns liquid. With `CCOC(=O)C1CCN(c2cc(-n3c(=O)cc(C(F)(F)F)[nH]c3=O)c(F)cc2C#N)CC1`, the melting point is 124.5 °C.

As a reminder, the chromatographic logP is a lipophilicity value derived from retention on a column. Read a low chromatographic logP as a more hydrophilic compound. As to `CCOC(=O)C1CCN(c2cc(-n3c(=O)cc(C(F)(F)F)n(C)c3=O)c(F)cc2C#N)CC1` [Example 2, 3-[4-cyano-5-(4-ethoxycarbonylpiperidin-1-yl)-2-fluorophenyl]-1-methyl-6-trifluoromethyl-1H-pyrimidine-2,4-dione], the “activity against weeds (degree of damage vs untreated control)” value in series [1] and in series [4] was “very strong activity” throughout. The “tolerance by crop plants” value in series [2] and in series [5] was “tolerated well” in each case. Also, the chromatographic logP in series [3] came out at 3.23.

For the molecule `Cn1c(C(F)(F)F)cc(=O)n(-c2cc(N3C(=O)CN(C4CC4)C3=O)c(C#N)cc2F)c1=O` [Example 3, 3-[4-cyano-2-fluoro-5-(1-cyclopropyl-2,4-dioxoimidazolidin-3-yl)phenyl]-1-methyl-6-trifluoromethyl-1H-pyrimidine-2,4-dione], the “activity against weeds (degree of damage vs untreated control)” value in series [1] and in series [4] was “very strong activity” in each case. The “tolerance by crop plants” value in series [2] and in series [5] was “tolerated well” each time. The molecule also returned a chromatographic logP in series [3] of 2.25.

As to `Cc1ccc(C)n1-c1cc(-n2c(=O)cc(C(F)(F)F)n(C)c2=O)c(F)cc1C#N` [Example 4], the “tolerance by crop plants” value in series [2] and in series [5] was “tolerated well” in each case.

Consider `Cn1c(C(F)(F)F)cc(=O)n(-c2cc(-n3cccc3)c(C#N)cc2F)c1=O` [Example 5], for which the “tolerance by crop plants” value in series [2] and in series [5] was “tolerated well” in each case.

Take `Cn1c(C(F)(F)F)cc(=O)n(-c2cc(-n3ccc(C=O)c3)c(C#N)cc2F)c1=O` [Example 6]: the “tolerance by crop plants” value in series [2] and in series [5] was “tolerated well” throughout. Also, the logP entry in series [3] was “m.p.: 174 °C logP = 2.25^a)”.

Regarding `CCOC(=O)CCN1CC(=O)N(c2cc(-n3c(=O)cc(C(F)(F)F)n(C)c3=O)c(F)cc2C#N)C1=O` [Example 8], the logP result in series [3] is listed as “logP = 2.48^a)”.

Take `Cn1c(C(F)(F)F)cc(=O)n(-c2cc(N3C(=O)C4CCCCN4C3=O)c(C#N)cc2F)c1=O` (stereo not drawn) [Example 9]: the “tolerance by crop plants” value in series [2] and in series [5] was “tolerated well” each time. Moreover, the logP entry in series [3] was “logP = 2.42^a)”.

For the molecule `CC1OC(=O)N(c2cc(-n3c(=O)cc(C(F)(F)F)n(C)c3=O)c(F)cc2C#N)C1=O` (stereo not drawn) [Example 10], the logP result in series [3] was “logP = 2.49^a)”. Besides, in series [5], the “tolerance by crop plants” value is on record as “tolerated well”.

As to `Cn1c(C(F)(F)F)cc(=O)n(-c2cc(N3C(=O)CSC3=O)c(C#N)cc2F)c1=O` [Example 11], the logP entry in series [3] is given as “logP = 2.36^a)”. Further, in series [4], the “activity against weeds (degree of damage vs untreated control)” value is given as “very strong activity”. In addition, in series [5], the “tolerance by crop plants” value was “tolerated well”.

Regarding `Cn1c(C(F)(F)F)cc(=O)n(-c2cc(N3C(=O)COC3=O)c(C#N)cc2F)c1=O` [Example 12], in series [5], the “tolerance by crop plants” value is recorded as “tolerated well”.

In the case of `CCOC(=O)C1CCN(c2cc(-n3c(=O)cc(C(F)(F)F)n(N)c3=O)c(F)cc2C#N)CC1` [Example 16], the “activity against weeds (degree of damage vs untreated control)” value in series [1] and in series [4] was “very strong activity” in each case. Moreover, the “tolerance by crop plants” value in series [2] and in series [5] was “tolerated well” in each case. Further, in series [3], the logP entry was “logP = 2.89^a)”.

Turning to `N#Cc1cc(F)c(-n2c(=O)cc(C(F)(F)F)[nH]c2=O)cc1N1CCC(O)CC1` [Example 18], in series [3], the logP entry was “logP = 1.62^a)”.

In the case of `Cn1c(C(F)(F)F)cc(=O)n(-c2cc(N3CCC(O)CC3)c(C#N)cc2F)c1=O` [Example 20], the “activity against weeds (degree of damage vs untreated control)” value in series [1] and in series [4] was “very strong activity” each time. Moreover, the “tolerance by crop plants” value in series [2] and in series [5] was “tolerated well” each time. The logP result in series [3] is “logP = 3.97^a)”.

Take `CCOC(=O)C1CCCN(c2cc(-n3c(=O)cc(C(F)(F)F)[nH]c3=O)c(F)cc2C#N)C1` (stereo not drawn) [Example 24]: the “tolerance by crop plants” value in series [2] and in series [5] was “tolerated well” throughout. The logP entry in series [3] was “logP = 3.31^a)”.

Consider `COC(=O)C1CCN(c2cc(-n3c(=O)cc(C(F)(F)F)n(C)c3=O)c(F)cc2C#N)CC1` [Example 28], for which the “activity against weeds (degree of damage vs untreated control)” value in series [1] and in series [4] was “very strong activity” each time. The “tolerance by crop plants” value in series [2] and in series [5] was “tolerated well” in each case. Also, in series [3], the logP result is “logP = 2.88^a)”.

For `Cn1c(C(F)(F)F)cc(=O)n(-c2cc(N3CCC(O)C3)c(C#N)cc2F)c1=O` (stereo not drawn) [Example 31], the “activity against weeds (degree of damage vs untreated control)” value in series [1] and in series [4] was “very strong activity” throughout. Moreover, the “tolerance by crop plants” value in series [2] and in series [5] was “tolerated well” each time. Also, the logP result in series [3] was “logP = 2.02^a)”.

Take `Cn1c(C(F)(F)F)cc(=O)n(-c2cc(N3CCC4(CC3)OCCO4)c(C#N)cc2F)c1=O` [Example 34]: in series [3], the logP result is listed as “logP = 2.67^a)”.

Take `N#Cc1cc(F)c(-n2c(=O)cc(C(F)(F)F)n(N)c2=O)cc1N1CCC2(CC1)OCCO2` [Example 35]: the logP result in series [3] is given as “logP = 2.37^a)”.

Regarding `Cn1c(C(F)(F)F)cc(=O)n(-c2cc(N3CCC(C(F)(F)F)CC3)c(C#N)cc2F)c1=O` [Example 37], the logP result in series [3] is recorded as “logP = 3.52^a)”.

As to `N#Cc1cc(F)c(-n2c(=O)cc(C(F)(F)F)[nH]c2=O)cc1N1CCC(C#N)CC1` [Example 38], the logP result in series [3] was “logP = 2.08^a)”.

Consider `Cn1c(C(F)(F)F)cc(=O)n(-c2cc(N3CCC4(CC3)OCCCO4)c(C#N)cc2F)c1=O` [Example 40], for which the logP entry in series [3] is listed as “logP = 2.69^a)”.

In the case of `N#Cc1cc(F)c(-n2c(=O)cc(C(F)(F)F)n(N)c2=O)cc1N1CCC2(CC1)OCCCO2` [Example 41], in series [3], the logP entry is recorded as “logP = 2.40^a)”.

Consider `N#Cc1cc(F)c(-n2c(=O)cc(C(F)(F)F)[nH]c2=O)cc1N1CCC(C(F)(F)F)CC1` [Example 42], for which, in series [3], the logP result is listed as “logP = 2.96^a)”.

Turning to `Cn1c(C(F)(F)F)nn(-c2cc(N3CCC4(CC3)OCCO4)c(C#N)cc2F)c1=O` [Example 50], the logP result in series [3] is “logP = 2.81^a)”.

Turning to `CCOC(=O)C1CCN(c2cc(N3C(=O)C4=C(CCCC4)C3=O)c(F)cc2C#N)CC1` [Example 59], the logP entry in series [3] is “logP = 3.77^a)”.

Take `CCOC(=O)C1CCN(c2cc(N3C(=O)C(C)=C(C)C3=O)c(F)cc2C#N)CC1` [Example 64]: the logP entry in series [3] was “logP = 3.37^a)”.

For the molecule `CCOC(=O)C1CCCN(c2cc(-n3c(=O)cc(C(F)(F)F)n(C)c3=O)c(F)cc2Cl)C1` (stereo not drawn) [Example 68], the logP result in series [3] was “logP = 3.87^a)”.

For `CCOC(=O)C1CCCCN1c1cc(-n2c(=O)cc(C(F)(F)F)n(C)c2=O)c(F)cc1Cl` (stereo not drawn) [Example 69], the logP result in series [3] is “logP = 4.07^a)”.

For `CCOC(=O)C1CCCN(c2cc(-n3c(=O)cc(C(F)(F)F)n(C)c3=O)c(F)cc2Br)C1` (stereo not drawn) [Example 73], in series [3], the logP entry is listed as “logP = 3.99^a)”.

Consider `CCOC(=O)C1CCCCN1c1cc(-n2c(=O)cc(C(F)(F)F)n(C)c2=O)c(F)cc1Br` (stereo not drawn) [Example 74], for which the logP entry in series [3] is “logP = 4.18^a)”.

As for `CCOC(=O)C1CCCN1c1cc(-n2c(=O)cc(C(F)(F)F)n(C)c2=O)c(F)cc1Br` (stereo not drawn) [Example 82], the logP result in series [3] is recorded as “logP = 3.61^a)”.

For the molecule `CCOC(=O)C1CCCN1c1cc(-n2c(=O)cc(C(F)(F)F)n(C)c2=O)c(F)cc1Cl` (stereo not drawn) [Example 83], in series [3], the logP result is reported as “logP = 3.49^a)”.

For `CCOC(=O)C1CCCN1c1cc(-n2c(=O)cc(C(F)(F)F)n(C)c2=O)c(F)cc1C#N` (stereo not drawn) [Example 84], in series [3], the logP entry is reported as “logP = 3.01^a)”.

The record behind these values is US20060148649A1, “Substituted n-aryl nitrogen heterocycles” (priority 2003, published 2006).
